# Test results reported in patent publication US12502386B2, “Nitrogen-containing heterocyclic compound and use thereof” (SHANGHAI SHIJIANG BIOTECHNOLOGY CO., LTD, priority 2022, dated 2025).
# How the values were obtained:
# Con-NCI-H82 cell = assay: CellTiter-Glo cell viability, Con-NCI-H82 cell (empty-vector control); type: cell-based, human; conditions: Homo sapiens, NCI-H82, NCI-H82 transfected with empty virus vector (control), intracellular ATP, read-out: inhibitory effect on Con-NCI-H82 (IC50)
# ov-NNMT NCI-H82 cell = assay: CellTiter-Glo cell viability, ov-NNMT NCI-H82 cell (NNMT overexpressed); type: cell-based, human; conditions: Homo sapiens, NCI-H82, NCI-H82 overexpressing NNMT protein, intracellular ATP, read-out: inhibitory effect on OV-NNMT NCI-H82 (IC50)
# sh-DNMT1 NCI-H82 cell = assay: CellTiter-Glo cell viability, sh-DNMT1 NCI-H82 cell (DNMT1 knocked down); type: cell-based, human; conditions: Homo sapiens, NCI-H82, NCI-H82 with DNMT1 knocked down by shRNA, intracellular ATP, read-out: inhibitory effect on sh-DNMT1 NCI-H82 (IC50)
# NCI-H82 = assay: CellTiter-Glo cell viability, tumor cell line NCI-H82; type: cell-based; conditions: NCI-H82, 72 h; human small cell lung cancer cell; 3 days of culture; read-out: inhibitory effect on NCI-H82 (IC50)
# Method: (§1) Cell viability was detected using the Promega CellTiter-Glo kit, cell viability was determined by directly measuring intracellular ATP content. In the experiment, the IC50 value of the compounds prepared in the Examples of the present invention on various tumor cell lines was detected.
# (§2) Each tumor cell was cultured in relevant medium. After cell passage, the gradient diluted compounds prepared in the Examples of the present invention was added. After 3 days of culture, the relevant IC50 (50% inhibiting concentration) was measured. The name, source and culture conditions of each tumor cell line were as follows:
# Cell line NCI-H82 (ATCC, No. HTB-175) was cultured in 10% fetal bovine serum-containing RPMI1640 medium (+P/S).
# G-401 = assay: CellTiter-Glo cell viability, tumor cell line G-401; type: cell-based; conditions: G-401, 72 h; human renal carcinoma Wilms cell; 3 days of culture; read-out: inhibitory effect on G-401 (IC50)
# Method: as §1, §2
# Cell line G-401 (ATCC, No. CRL-1441) was cultured in 10% fetal bovine serum-containing McCoy's 5a medium (+P/S).
# MDA-MB-453 = assay: CellTiter-Glo cell viability, tumor cell line MDA-MB-453; type: cell-based; conditions: Homo sapiens, MDA-MB-453, 72 h; breast cancer cell; 3 days of culture; read-out: inhibitory effect on MDA-MB-453 (IC50)
# Method: as §1
# as §2, with “follows: […]” for “follows:”
# SW48 = assay: CellTiter-Glo cell viability, tumor cell line SW48; type: cell-based; conditions: SW48, 72 h; human colon adenocarcinoma cell; 3 days of culture; read-out: inhibitory effect on SW48 (IC50)
# Method: as §1, §2
# Cell line SW48 (ATCC, No. CCL-231) was cultured in 10% fetal bovine serum-containing Leibovitz's L-15 medium (+P/S).
# CFPAC-1 = assay: CellTiter-Glo cell viability, tumor cell line CFPAC-1; type: cell-based; conditions: CFPAC-1, 72 h; human pancreatic cancer cell; 3 days of culture; read-out: inhibitory effect on CFPAC-1 (IC50)
# Method: as §1, §2
# Cell line CFPAC-1 (ATCC, No. CRL-1918) was cultured in 10% fetal bovine serum-containing IMDM medium (+P/S).
# 786-O = assay: CellTiter-Glo cell viability, tumor cell line 786-O; type: cell-based; conditions: Homo sapiens, 786-0, 72 h; clear cell renal cell adenocarcinoma cell; 3 days of culture; read-out: inhibitory effect on 786-O (IC50)
# Method: as §1, §2
# Cell line 786-0 (ATCC, No. CRL-1932) was cultured in 10% fetal bovine serum-containing RPMI164B medium (+P/S).
# GB-1 = assay: CellTiter-Glo cell viability, tumor cell line GB-1; type: cell-based; conditions: GB-1, 72 h; human brain glioblastoma cell; 3 days of culture; read-out: inhibitory effect on GB-1 (IC50)
# Method: as §1, §2
# Cell line GB-1 (JCRB, No. IFO50489) was cultured in 10% fetal bovine serum-containing DMEM medium (+P/S).
# (§3) Cell viability was detected using the Promega CellTiter-Glo kit, cell viability was determined by directly measuring intracellular ATP content. In the experiment, the IC50 value of the compounds prepared in the Examples of the present invention on various brain tumor cell lines was detected.
# SF-126 = assay: CellTiter-Glo cell viability, tumor cell line SF-126; type: cell-based; conditions: SF-126, 72 h, read-out: inhibitory effect on SF-126 (IC50); human glioblastoma multiforme cell; 3 days of culture
# Method: as §1, §2
# Cell line SF126 (JCRB, No. IFO50286) was cultured in 10% fetal bovine serum-containing EMEM medium (+P/S).
# as §3
# D341 Med = assay: CellTiter-Glo cell viability, brain tumor cell line D341 Med; type: cell-based; conditions: Homo sapiens, 72 h, cerebellar medulloblastoma cell, 3 days of culture, read-out: inhibitory effect on D341 Med (IC50)
# Method: as §3, §2
# Cell line D341 Med (ATCC, No. HTB-187) was cultured in 20% fetal bovine serum-containing EMEM medium (+P/S).
# Kelly = assay: CellTiter-Glo cell viability, brain tumor cell line Kelly; type: cell-based; conditions: Homo sapiens, 72 h, brain neuroblastoma cell, 3 days of culture, read-out: inhibitory effect on Kelly (IC50)
# Method: as §3, §2
# Cell line Kelly (ECACC, No. 92110411) was cultured in 10% fetal bovine serum and 2 mM glutamine-containing RPMI1640 medium.
# NB-1 = assay: CellTiter-Glo cell viability, brain tumor cell line NB-1; type: cell-based; conditions: Homo sapiens, NB1, 72 h; brain neuroblastoma cell; 3 days of culture; read-out: inhibitory effect on NB-1 (IC50)
# Method: as §3
# as §2, with “follows: […]” for “follows:”
Compound,IC50 (Con-NCI-H82 cell),IC50 (ov-NNMT NCI-H82 cell),IC50 (sh-DNMT1 NCI-H82 cell),IC50 (NCI-H82),IC50 (G-401),IC50 (MDA-MB-453),IC50 (SW48),IC50 (CFPAC-1),IC50 (786-O),IC50 (GB-1),IC50 (SF-126),IC50 (D341 Med),IC50 (Kelly),IC50 (NB-1)
[2H]C([2H])([2H])Oc1c(OC)ccc2c1C(C1CCCC1)N1CCc3cc4c(cc3C1=C2)OCO4 (stereo not shown) [AB36501],970 nM,4330 nM,5120 nM,970 nM,880 nM,1320 nM,1160 nM,9880 nM,13100 nM,13300 nM,15400 nM,760 nM,1380 nM,2060 nM
COc1ccc2c(c1OCCCF)CN1CCc3cc4c(cc3C1=C2)OCO4 [AB35590],1520 nM,4680 nM,4040 nM,1520 nM,2660 nM,1980 nM,2150 nM,15300 nM,13900 nM,22500 nM,17700 nM,2780 nM,3160 nM,1990 nM
COc1ccc2c(c1OCCCCl)C(C(Cl)(Cl)Cl)N1CCc3cc4c(cc3C1=C2)OCO4 (stereo not shown) [AB35441],1010 nM,3210 nM,2980 nM,1010 nM,1560 nM,980 nM,1220 nM,12300 nM,16500 nM,24400 nM,> 30000 nM,2320 nM,3160 nM,1980 nM
COc1ccc2c(c1OCCCCl)CN1CCc3cc4c(cc3C1=C2)OCO4 [AB35543],550 nM,2680 nM,3120 nM,550 nM,1060 nM,880 nM,1560 nM,10200 nM,9880 nM,13400 nM,15900 nM,1680 nM,1540 nM,2360 nM
CCCOc1c(OC)ccc2c1C(C1CCCC1)N1CCc3cc4c(cc3C1=C2)OCO4 (stereo not shown) [AB35512],620 nM,2420 nM,2320 nM,620 nM,1330 nM,1560 nM,2020 nM,17300 nM,15400 nM,23500 nM,18100 nM,2010 nM,4230 nM,1560 nM
CCCC1=C2c3cc4c(cc3CCN2C(C2CCCC2)c2c1ccc(OC)c2OC)OCO4 (stereo not shown) [AB35504],2220 nM,4960 nM,6760 nM,2220 nM,3120 nM,1960 nM,3560 nM,25600 nM,20400 nM,> 30000 nM,> 30000 nM,1580 nM,3030 nM,3580 nM
COc1ccc2c(c1OCCCCl)C(C1CCCC1)N1CCc3cc4c(cc3C1=C2)OCO4 (stereo not shown) [AB35434],1680 nM,5120 nM,4980 nM,1680 nM,2640 nM,2320 nM,3050 nM,> 30000 nM,22200 nM,25700 nM,> 30000 nM,3150 nM,2460 nM,2980 nM
COc1ccc2c(c1OC)C(C(Cl)(Cl)Cl)N1CCc3cc4c(cc3C1=C2CCCc1ccccc1)OCO4 (stereo not shown) [AB35417],570 nM,1780 nM,3120 nM,570 nM,1110 nM,1320 nM,980 nM,9880 nM,10200 nM,14100 nM,12300 nM,880 nM,1240 nM,2390 nM
